Assay results from ChEMBL document CHEMBL1201862, “PubChem BioAssay data set” (2004).
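Protocol summary: plate cells (96-well), add compound at 5 concentrations, incubate 48 h, interpolate endpoints linearly. GI50 is the concentration that inhibits growth by half.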 The source made the active and inactive calls. No stated cut-off is given here; in the data, active = GI50 up to about 1.1 µM and inactive = higher.

Key:
Experiment in all cases: NCI-60 cell line screen, 48 h
[1] = system: MDA-MB-435
[2] = system: SF-295
[3] = system: NCI-H522
[4] = system: MCF7
[5] = system: MDA-N
[6] = system: A549
[7] = system: Hs-578T
[8] = system: NCI-H460
[9] = system: NCI-H226
[10] = system: HT-29
[11] = system: M14
[12] = system: SW-620
[13] = system: SF-539
[14] = system: BT-549
[15] = system: RXF 393
[16] = system: MDA-MB-231
[17] = system: DU-145
[18] = system: Malme-3M
[19] = system: CAKI-1
[20] = system: MOLT-4
[21] = system: UACC-257
[22] = system: RPMI-8226
[23] = system: COLO 205
[24] = system: UO-31
[25] = system: OVCAR-8
[26] = system: NCI-H23
[27] = system: SK-MEL-2
[28] = system: SK-MEL-28
[29] = system: HOP-92
[30] = system: SNB-75
[31] = system: TK-10
[32] = system: IGROV-1
[33] = system: 786-0
[34] = system: U-251
[35] = system: HCC 2998
[36] = system: SF-268
[37] = system: SK-MEL-5
[38] = system: SR
[39] = system: OVCAR-3
[40] = system: K562
[41] = system: HCT-15
[42] = system: SK-OV-3
[43] = system: OVCAR-5
[44] = system: SNB-19
[45] = system: ACHN
[46] = system: PC-3
[47] = system: SN12C
[48] = system: HOP-62
[49] = system: NCI/ADR-RES
[50] = system: UACC-62
[51] = system: KM12
[52] = system: HCT-116
[53] = system: OVCAR-4
[54] = system: LOX IMVI
[55] = system: CCRF-CEM
[56] = system: HL-60
[57] = system: EKVX
[58] = system: A498

COC(=O)c1ccc(COC(=O)N2C=CCC2C(=O)O)cc1 (stereo not given)
GI50 [1]: > 100 µM (inactive)
GI50 [2]: > 100 µM (inactive)
GI50 [3]: > 100 µM (inactive)
GI50 [4]: > 100 µM (inactive)
GI50 [5]: > 100 µM (inactive)
GI50 [6]: > 100 µM (inactive)
GI50 [7]: > 100 µM (inactive)
GI50 [8]: > 100 µM (inactive)
GI50 [9]: > 100 µM (inactive)
GI50 [10]: > 100 µM (inactive)
GI50 [11]: > 100 µM (inactive)
GI50 [12]: > 100 µM (inactive)
GI50 [13]: > 100 µM (inactive)
GI50 [14]: > 100 µM (inactive)
GI50 [15]: > 100 µM (inactive)
GI50 [16]: > 100 µM (inactive)
GI50 [17]: > 100 µM (inactive)
GI50 [18]: > 100 µM (inactive)
GI50 [19]: > 100 µM (inactive)
GI50 [20]: > 100 µM (inactive)
GI50 [21]: > 100 µM (inactive)
GI50 [22]: > 100 µM (inactive)
GI50 [23]: > 100 µM (inactive)
GI50 [24]: > 100 µM (inactive)
GI50 [25]: > 100 µM (inactive)
GI50 [26]: > 100 µM (inactive)
GI50 [27]: > 100 µM (inactive)
GI50 [28]: > 100 µM (inactive)
GI50 [29]: 63 µM (inactive)
GI50 [30]: > 100 µM (inactive)
GI50 [31]: > 100 µM (inactive)
GI50 [32]: > 100 µM (inactive)
GI50 [33]: > 100 µM (inactive)
GI50 [34]: > 100 µM (inactive)
GI50 [35]: > 100 µM (inactive)
GI50 [36]: > 100 µM (inactive)
GI50 [37]: > 100 µM (inactive)
GI50 [38]: > 100 µM (inactive)
GI50 [39]: > 100 µM (inactive)
GI50 [40]: > 100 µM (inactive)
GI50 [41]: > 100 µM
GI50 [42]: > 100 µM (inactive)
GI50 [43]: > 100 µM (inactive)
GI50 [44]: > 100 µM (inactive)
GI50 [45]: > 100 µM (inactive)
GI50 [46]: > 100 µM (inactive)
GI50 [47]: > 100 µM (inactive)
GI50 [48]: > 100 µM (inactive)
GI50 [49]: > 100 µM (inactive)
GI50 [50]: > 100 µM (inactive)
GI50 [51]: > 100 µM (inactive)

Cc1nc2ccccc2c(=O)n1NC(=O)c1ccccc1O
GI50 [1]: > 100 µM (inactive)
GI50 [2]: > 100 µM (inactive)
GI50 [3]: > 100 µM (inactive)
GI50 [4]: > 100 µM (inactive)
GI50 [52]: > 100 µM (inactive)
GI50 [5]: > 100 µM (inactive)
GI50 [6]: > 100 µM (inactive)
GI50 [7]: > 100 µM (inactive)
GI50 [8]: > 100 µM (inactive)
GI50 [9]: > 100 µM (inactive)
GI50 [10]: > 100 µM (inactive)
GI50 [53]: > 100 µM (inactive)
GI50 [11]: > 100 µM (inactive)
GI50 [12]: > 100 µM (inactive)
GI50 [13]: > 100 µM (inactive)
GI50 [14]: > 100 µM (inactive)
GI50 [15]: > 100 µM (inactive)
GI50 [16]: > 100 µM (inactive)
GI50 [17]: > 100 µM (inactive)
GI50 [20]: > 100 µM (inactive)
GI50 [21]: > 100 µM (inactive)
GI50 [22]: > 100 µM (inactive)
GI50 [23]: > 100 µM (inactive)
GI50 [24]: > 100 µM (inactive)
GI50 [25]: > 100 µM (inactive)
GI50 [26]: > 100 µM (inactive)
GI50 [28]: > 100 µM (inactive)
GI50 [29]: > 100 µM (inactive)
GI50 [30]: > 100 µM (inactive)
GI50 [31]: > 100 µM (inactive)
GI50 [32]: > 100 µM (inactive)
GI50 [33]: > 100 µM (inactive)
GI50 [34]: > 100 µM (inactive)
GI50 [35]: > 100 µM (inactive)
GI50 [36]: > 100 µM (inactive)
GI50 [37]: > 100 µM (inactive)
GI50 [54]: > 100 µM (inactive)
GI50 [38]: > 100 µM (inactive)
GI50 [55]: > 100 µM (inactive)
GI50 [56]: > 100 µM (inactive)
GI50 [39]: > 100 µM (inactive)
GI50 [40]: > 100 µM (inactive)
GI50 [41]: > 100 µM
GI50 [57]: > 100 µM (inactive)
GI50 [42]: > 100 µM (inactive)
GI50 [43]: > 100 µM (inactive)
GI50 [44]: > 100 µM (inactive)
GI50 [45]: > 100 µM (inactive)
GI50 [46]: > 100 µM (inactive)
GI50 [47]: > 100 µM (inactive)
GI50 [48]: > 100 µM (inactive)
GI50 [58]: > 100 µM (inactive)
GI50 [50]: > 100 µM (inactive)
GI50 [51]: > 100 µM (inactive)
